Test [1] has as its target T1, Arabidopsis TGD2, DsRed-TGD2C WT (DR-WT) fusion protein, residues 119-381, SEQ ID NO:107 (Arabidopsis thaliana, UniProt Q9LTR2).
T1 construct: made in house; host or cells: Escherichia coli BL21 (DE3)
T1 sequence (Q9LTR2 119-381): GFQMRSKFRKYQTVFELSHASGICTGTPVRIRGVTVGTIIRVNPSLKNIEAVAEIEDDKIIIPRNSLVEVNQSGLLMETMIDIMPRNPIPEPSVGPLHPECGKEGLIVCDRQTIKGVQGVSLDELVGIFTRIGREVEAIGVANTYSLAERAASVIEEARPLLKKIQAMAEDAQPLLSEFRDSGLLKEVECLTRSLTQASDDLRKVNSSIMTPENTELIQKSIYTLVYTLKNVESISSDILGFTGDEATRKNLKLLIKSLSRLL
In words: Liposome-association assay (mixed PA/PC liposomes), DsRed-TGD2C WT. The test is classed as binding. Here is the method:
FIG. 2A: Analysis by liposome-association assay. A mixture of dioleoyl-PA and dioleoyl-PC was used where the weight percent of PA was varied from 0-100% (wt/wt), maintaining the total lipid invariant at 250 μg. 1 μg protein was used. P, protein recovered in the absence of lipids.
In this assay, purified recombinant proteins were incubated with liposomes for 30 min at 30° C. before centrifugation at 20,000 g for 10 min to pellet the liposomes. Proteins bound to the liposomes were found associated with the lipid pellet, whereas non-binding proteins remained in the supernatant. In an effort to determine the optimal concentration of PA required for high specificity binding, a PA/PC liposome mixture containing varying weight fractions of PA was prepared and incubated with DsRed-TGD2CWT or DsRed alone.
(§1) The liposome association assay was performed as previously reported. (31). Briefly, lipids (dioleoyl-phosphatidylcholine, DOPC or dioleoyl-PA, DOPA) were incubated in TBS (50 mM Tris-HCl, pH 7; 0.1 M NaCl) at 37° C. for an hour followed by vigorous vortexing for 5 min. The liposomes were precipitated at 20,000 g and washed twice with ice-cold TBS.
(§2) Liposomes (200 μg) were mixed with purified DsRed-TGD2 fusion protein and TBS to make a final 100 μL solution. The mixture was incubated at 30° C. for 30 min and washed twice with ice-cold TBS by centrifugation at 20,000 g at 4° C. The liposome pellet mixed with sample buffer was analyzed by SDS-PAGE (28). Immuno-detection of the His-tagged protein was accomplished using the above mentioned Penta-His antibody at 1:15,000 and the anti mouse antibody at 1:75,000 dilution.
(§3) The protein band was visualized by chemiluminescent detection kit from Sigma. The autoradiography film was scanned, distinct protein bands were quantified using computer software Multi Gauge V3.0 (Fujifilm USA, Valhalla, N.Y.) and resulted data were plotted and analyzed by OriginPro8 (Origin lab corporation, Northampton, Mass.).

Test [2] deals with T2, Arabidopsis TGD2, DsRed-TGD2C T9 (residues 221-250, SEQ ID NO:40) (Arabidopsis thaliana, UniProt Q9LTR2).
T2 sequence (Q9LTR2 221-250): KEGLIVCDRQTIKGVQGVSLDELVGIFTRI
In words: Liposome-association assay, TGD2C T9 (221-250). The test is classed as binding. How it is done: as §1, §2, §3

In test [3] the target is T3, Arabidopsis TGD2, N-terminally truncated TGD2-dTMD-His (from Gly-119) (Arabidopsis thaliana, UniProt Q9LTR2).
T3 sequence (Q9LTR2 119-381): T1 sequence (Q9LTR2 119-381)
Nature of the test: Membrane lipid binding assay, TGD2-dTMD-His. The conditions noted are these: lipid membranes, FIG. 8A. Here is the method:
Commercially available membrane strips prespotted with lipids were purchased. (Echelon Biosciences, Salt Lake City, Utah). Prokaryotic phosphatidylcholine and PA were also purchased (Avanti Polar Lipids). Prokaryotic monogalactolipid, digalactolipid, sulfolipid, and phosphatidylglycerol were purified from Synechocystis PCC6803 by TLC of lipid extracts. Eukaryotic monogalactolipid and digalactolipid was isolated from pea leaves.
Approximately 5 μg of lipids were spotted onto a Hybond-C membrane (Amersham Pharmacia Biosciences). The membranes were first blocked with 3% BSA in TBST (10 mM Tris-HCl, pH 8.0/150 mM NaCl/0.1% Tween 20) for 1 h and incubated in 0.5 μg/ml TGD2 protein solution in the blocking buffer at 4° C. overnight. The blots were washed five times with TBST and soaked in 3% BSA in TBST with a Penta-His mouse monoclonal antibody (Qiagen) at a 1:1,000 dilution at room temperature overnight. The membranes were washed twice with TBST and soaked in 3% BSA in TBST with alkaline phosphatase-conjugated anti-mouse antibody (Jackson ImmunoResearch) at a 1:5,000 dilution for 1 hour at room temperature. After washing with TBST twice, the protein was detected by using the Immun-Star AP detection system (Bio-Rad).

For test [4], the target named is T4, Arabidopsis TGD4, DsRED-TGD4-His, full-length TGD4 1-479 (SEQ ID NO: 132) (Arabidopsis thaliana, UniProt Q9M903).
T4 sequence (Q9M903 1-479): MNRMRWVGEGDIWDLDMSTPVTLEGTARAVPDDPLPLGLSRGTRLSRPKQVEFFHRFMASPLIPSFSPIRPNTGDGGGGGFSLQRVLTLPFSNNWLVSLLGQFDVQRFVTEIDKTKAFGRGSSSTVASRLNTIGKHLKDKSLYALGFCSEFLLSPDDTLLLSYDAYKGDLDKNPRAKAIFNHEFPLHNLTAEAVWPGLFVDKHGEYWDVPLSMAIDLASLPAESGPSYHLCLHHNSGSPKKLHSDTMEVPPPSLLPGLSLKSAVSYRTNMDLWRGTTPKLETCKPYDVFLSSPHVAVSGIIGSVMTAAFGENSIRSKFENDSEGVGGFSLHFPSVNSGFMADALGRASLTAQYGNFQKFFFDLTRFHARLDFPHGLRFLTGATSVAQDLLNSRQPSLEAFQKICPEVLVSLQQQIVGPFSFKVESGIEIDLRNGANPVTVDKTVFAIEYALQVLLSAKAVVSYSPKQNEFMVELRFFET
Nature of the test: Protein-lipid overlay assay, DsRED-TGD4-His. Conditions: commercial phospholipid membrane, FIG. 18A. Format: binding. How it is done:
Protein-Lipid Overlay Assay:
The protein-lipid overlay assay was modified from (Awai et al., 2006, Lu and Benning, 2009). Phosphoinositol-4,5-bisphosphate PIP2) lipid strips were purchased from Echelon Biosciences (Salt Lake City, Utah). Lipids spotted onto membranes were purchased from Avanti Polar Lipids (Alabaster, Al.) as well as Larodan Fine Chemicals (Malmo, Sweden). Lipids (10 nmol) were suspended in 20 μl spotting buffer (250 μl chloroform, 500 μl methanol, 200 μl 50 mM HCl, 2 μl 1% (w/v) Ponseau S (Sigma, St. Louis, Mo.)) and spotted onto Amersham Hybond-C Extra membranes (GE Healthcare, Piscataway, N.J.) followed by drying for 1 hour in a fume hood. The lipid membranes were then blocked in 3% (w/v) bovine serum albumin (BSA) in TBST buffer (TBS with 0.25% (v/v) Tween 20) for 2 hours at room temperature. Purified DsRED-TGD4-His fusion proteins were added at 1 μg/ml final concentration and incubated overnight at 4° C. followed by washing 3 times in TBST. Lipid membranes were then incubated with 1:2000 diluted His antibody (Sigma) in blocking buffer for 2 hours at room temperature followed by 2 washes with TBST. The membranes were processed for immunoblotting as described below.

Setting [5] is: DR-WT as quantification control, mixed PA/PC liposomes, FIGS. 5A-5C.

`CCCCCCCC/C=C\CCCCCCCC(=O)OC[C@H](COP(=O)(O)O)OC(=O)CCCCCCC/C=C\CCCCCCCC` [PA, phosphatidic acid]: in test [1] (setting [5]), the “Hill number, PA binding” value was found to be 2.8 and the “modified Kd, PA binding” value is 37.66 mol %. In test [1] (PC, PA/PC or PA liposomes, FIG. 3B), the “binding to PA or PC” value is recorded as “significant binding”. Moreover, the “Hill number, PA binding” value in test [1] (dioleoyl-PA/dioleoyl-PC liposomes, FIG. 2B) worked out at 5.8. Besides, the PA binding result in test [2] is given as “no interaction to PA was detected”. In addition, in test [3], the binding of lipids entry was “bound”. In addition, the “binding to lipids on membranes” value in test [4] is on record as “specifically bind”.

The record behind these values is patent publication US8629251B2, “Specific detection and quantification of phosphatidic acid using an Arabidopsis trigalactosyldiacylglycerol-4 (TGD4) protein” (Board of Trustees of Michigan State University, priority 2008, dated 2014).
